Entries after “also recorded” stand apart in the source; their conditions may differ.
Assays:
[1] = test system: RAW 264.7 macrophage cells; assay: Wound healing assay (macrophage migration); type: cell-based, murine; conditions: LA1 15 μM, M18/2 20 μg/mL, 48 hours
Protocol: Murine RAW 264.7 macrophage cells were grown in DMEM 10% FBS medium in T75 flasks to 70% confluence. The cells were detached by trypsin treatment for 10 minutes at 37° C. and evenly reseeded in 24 well plates and allowed to attain >70% confluency. A scratch was introduced horizontally across the well using 200 µL tip applying even force throughout the etching and holding the tip at approximately an 80 degree angle. The wells were subsequently washed and fresh medium containing various treatment groups was introduced. The wound was imaged using 10× objective. The cells were allowed to grow for 48 hours and the wound was reimaged at the same field after 48 hours. The average extent of wound closure was evaluated by measuring the width of the wound. The area healed was analyzed using ImageJ software and is expressed as percentage healing after 48 hours.
For FIG. 4B, RAW 264.7 cells were plated in 24-well tissue culture plates (2×10^6 cells/well) and allowed to adhere in complete media for 12 hours. […] Images of the cells in culture were obtained immediately prior to (0 hours) and after the completion of the experiment (48 hours) using an inverted phase contrast microscope attached to a video camera.
Representative data shown here are from a triplicate well experiment from one of at least two to three independent experiments. **p<0.001, ***p<0.0001.

[2] = test system: hematopoiesis and HSC compartment; assay: Hematopoiesis and HSC compartment after 6 Gy total body irradiation; type: in vivo, mice; conditions: 1 mg/kg i.p. 7 days from 24 hours post 6 Gy TBI; 4 weeks post TBI
Protocol: FIGS. 26A-26C show the analysis of hematopoiesis and HSC compartment in LA1 (Red bars), Vehicle control (Blue bars) treated groups of mice at 4 weeks after 6 Gy of total body irradiation (TBI), showing that LA1 is highly radio-protective and a radio-mitigator. […] Mice were exposed to 6 Gy of TBI (at 0.5 Gy/min), and treated intraperitoneally (i.p.) with LA1 (1 mg/kg) or vehicle alone for 7 consecutive days starting at 24 hours post TBI.

CD11b/CD18 = CD11b/CD18 (Homo sapiens, UniProt P11215); conditions: earlier described [55]; cited from earlier work
[3] = test system: allograft transplantation; assay: Allograft transplantation model (kidney); type: in vivo; conditions: co-treatment with cyclosporine
Human macrophages = assay: mRNA levels of pro-inflammatory factors in LPS-treated human macrophages; type: cell-based; conditions: co-treated with LPS
Protocol: It was shown that β2 integrin agonist leukdherin LA1 modulates the expression levels of various pro-inflammatory factors in cells. Human macrophages were treated with LPS in the absence or presence of LA1 in vitro and determined the levels of mRNA in the cells at various time points using Nanostring inflammation array (184 genes) and exiqon microRNA panels.

Cl66 cells = assay: Cl66 tumor re-growth after irradiation; type: in vivo, mice
Protocol: Data shown are means±SEM. *, P<0.05; **, P<0.001 (by one-way ANOVA). In this experiment, four groups of tumor-bearing animals were used (n=11/group): 1) Treatment with saline alone (red line), 2) Treatment with leukadherins LA1 alone (orange line), 3) Treatment with a single dose of 20 Gy irradiation (two 10%+10% vertices) alone (black line) and 4) Treatment with a single dose of 20 Gy irradiation and then daily LA1 (at −2 hours) (blue line). The syngeneic murine mammary adenocarcinoma cell line Cl66 (moderately metastatic and is related to the highly metastatic 4T1 cell line) was orthotopically introduced in Balb/c animals, by injecting approximately 5×10^5 Cl66 cells under the left mammary fat pad of WT BALB/c mice (approximately 10 weeks old). The tumor size was measured using calipers every other day until the end of the experiment (approximately 5 weeks). 7-days post implantation, the tumors in all animals became palpable, with an average size of ˜100 mm3. At that time, animals in groups 3 and 4 were treated with irradiation. Animals in group 4 received LA1, starting at 2 hours prior to irradiation. […]
A syngeneic xenograft model was used to address the effects of inflammatory cell recruitment on tumor cell re-growth after radio-therapy. […] The tumor size was measured using calipers every other day until the end of the experiment (approximately 5 weeks). […]

[4] = test system: T cells from the draining lymph nodes; assay: IFN production by antigen-reactive T cells (MOG-peptide); type: cell-based, mice; conditions: antigen dose-dependent
Protocol: Additionally, LA1 decreased IFN-[…] production by T-cells in an antigen dose-dependent fashion (MOG-peptide, data not shown) when antigen-reactive T cells from the draining lymph nodes of mice were assessed.

Diabetic nephropathy = Diabetic nephropathy model (BTBR ob/ob mouse); type: in vivo
Protocol: The efficacy of LA1 was tested in an experimental model of Diabetic nephropathy (DN), where inflammation plays a major role. It was surmised that reducing leukocyte activation, recruitment and influx can be a beneficial strategy for developing therapeutics against DN.

Syk = assay: Western blot analysis of Syk phosphorylation in leukocytes; type: cell-based; conditions: leukocytes incubated 0-60 minutes
Text: TLR4-mediated signaling requires participation of the adaptor protein MyD88 (43) and MyD88−/− mice are protected from kidney damage following IRI. TLR4 activation leads to the binding and stabilization of adaptor protein MyD88, which recruits downstream kinases to initiate Nf-kB-mediated pro-inflammatory signaling. Subsequently, TLR4 signaling induces a negative feedback loop by endogenous activation of CD11b/CD18, which activates Syk to phosphorylate MyD88, tagging it for ubiquitin-mediated destruction. […] A pilot experiment was carried out to validate this hypothesis by determining the levels of MyD88 in human monocytic THP-1 cells. […] This supports the statements that leukadherins mediated priming of integrins for activation negatively regulates intracellular signaling, including the inflammatory NF-kB signaling.

[5] = LA1 concentration in mouse blood after PO and IP dosing (LC-MS); type: in vivo; conditions: 10 mg/kg, mice
MyD88 = MyD88 levels in THP-1 cells; type: cell-based, human
Text: TLR4-mediated signaling requires participation of the adaptor protein MyD88 (43) and MyD88−/− mice are protected from kidney damage following IRI. TLR4 activation leads to the binding and stabilization of adaptor protein MyD88, which recruits downstream kinases to initiate Nf-kB-mediated pro-inflammatory signaling. Subsequently, TLR4 signaling induces a negative feedback loop by endogenous activation of CD11b/CD18, which activates Syk to phosphorylate MyD88, tagging it for ubiquitin-mediated destruction. […] A pilot experiment was carried out to validate this hypothesis by determining the levels of MyD88 in human monocytic THP-1 cells.

[6] = daily administration, fully diabetic animals

For `O=C(O)c1ccc(-c2ccc(/C=C3\SC(=S)N(Cc4ccccc4)C3=O)o2)cc1` [LA1], the “migration of LPS- or PMA-stimulated macrophages” value [1] was “significantly, and to a similar extent, reduced the migration”, the “migration of macrophages into the wound area, agonist alone” value ([1]; vs DMSO) was “no significant increase in the migration of macrophages” and the “HSC analysis (BM cellularity, frequency of LKS+ BM cells and LKS+ CD150+ CD48− BM cells)” value [2] was “significant improvement”. The “affinity for CD11b/CD18” value (CD11b/CD18) was “high-affinity”, the “engraftment of the donated kidney” value [3] was “much better engraftment” and the “mRNA levels of pro-inflammatory factors upregulated by LPS” value (Human macrophages) was “significantly reduced”. The “rate of tumor growth, LA1 alone without irradiation” value (Cl66 cells; similar to irradiation alone) was “reduced rate of tumor growth”, the “rate of tumor growth post-irradiation” value (Cl66 cells; single dose 20 Gy plus LA1 from -2 hours) was “significant reduction in the rate of tumor growth post-irradiation” and the “IFN-[…] production by T-cells” value [4] was “decreased”. For the same compound, the “glomerular damage and glomerular mesangial sclerosis” value (Diabetic nephropathy; BTBR ob/ob mouse model) was “reduced glomerular damage and glomerular mesangial sclerosis”, the kidney function (Diabetic nephropathy; [6]) was “preserved kidney function” and the “number of infiltrating leukocytes in the kidney” value (Diabetic nephropathy; [6]) was “significantly reduced the number of infiltrating leukocytes”. The “Syk phosphorylation (pSyk)” value (Syk) was “induction of Syk phosphorylation; also recorded: induces Syk phosphorylation”, the bioavailability [5] was “bioavailable” and the “concentration of LA1 in plasma” value [5] was “high concentrations”. For the same compound, the levels in blood [5] was “micromolar levels”, the mean residence time [5] was “at least a few hours” and the “time to complete degradation of MyD88” value (MyD88; LA1 alone, absence of LPS) was “less than 2 hours”. The MyD88 degradation (MyD88; co-treatment with LPS, THP-1 cells) was “much faster degradation of MyD88”.

Source: patent US10239871B2, “Compounds and methods for regulating integrins” (ADHAERE PHARMACEUTICALS, INC., priority 2012, dated 2019)
